# Source: patent US12208097B2, “Protein kinase C inhibitors for treatment of uveal melanoma” (NOVARTIS AG, priority 2017, dated 2025)
# How the values were obtained:
# [1] = tested on: MP55 (GNA11mut/BAP1 null) uveal melanoma xenograft; assay: Patient derived uveal melanoma xenograft model MP55; assay type: in vivo, female SCID mice
# Source text: The anti-tumor activity and tolerability of Compound […]196) and the MDM2 inhibitor (Compound III or its salt thereof) was investigated in vivo using two patient derived uveal melanoma xenograft models, MP46 (GNAQmut) and MP55 (GNA11mut/BAP1 null). MP46 and MP55 uveal melanoma tumors were established in female SCID mice by subcutaneous implantation of 3×3×3 mm tumor fragments into the flank of each mouse. When tumors reached approximately 100 mm^3, mice were randomized according to tumor volume into treatment groups (n=8-10/group). Test agents were administered orally once (QD) or twice daily (BID) at the dose levels indicated. Tumor volumes of treatment groups are plotted from the time the treatment groups were randomized, and dosing commenced.
# [2] = tested on: MP46 (GNAQmut) uveal melanoma xenograft; assay: Patient derived uveal melanoma xenograft model MP46; assay type: in vivo, female SCID mice; settings: 35 days post dosing
# Source text: The anti-tumor activity and tolerability of Compound I (i.e., LXS196) and the MDM2 inhibitor (Compound III or its salt thereof) was investigated in vivo using two patient derived uveal melanoma xenograft models, MP46 (GNAQmut) and MP55 (GNA11mut/BAP1 null).
# MP46 and MP55 uveal melanoma tumors were established in female SCID mice by subcutaneous implantation of 3×3×3 mm tumor fragments into the flank of each mouse. When tumors reached approximately 100 mm^3, mice were randomized according to tumor volume into treatment groups (n=8-10/group). Test agents were administered orally once (QD) or twice daily (BID) at the dose levels indicated. Tumor volumes of treatment groups are plotted from the time the treatment groups were randomized, and dosing commenced.
# [3] = tested on: metastatic uveal melanoma; assay: Phase I trial: tumor response per RECIST v1.1; assay type: in vivo, human; settings: in 68 evaluable pts
# Experimental: (§1) A phase 1, multicenter, open-label, single-arm study of Compound I was performed in patients with metastatic uveal melanoma. A Bayesian logistic regression model, employing the escalation with overdose control principle, was used to guide the dose escalation and to estimate the maximum tolerated dose (MTD)/recommended dose for expansion (RDE). Safety was described using incidence of adverse events (AEs) by relation and severity of the AE graded according to the Common Terminology Criteria for AEs (CTCAE, v4.03). Overall response rate was defined as per Response Evaluation Criteria in Solid Tumors (RECIST, v1.1).
# (§2) Patients eligible for inclusion in this study have to meet all of the following key criteria: • Metastatic uveal melanoma (histologically or cytologically confirmed) that is judged to be progressive; patients may be treatment naive or have had any number of lines of prior therapy. • Measurable disease, defined as at least one lesion that can be accurately measured in at least one dimension (longest diameter to be recorded) as >20 mm with conventional techniques or as >10 mm with CT scan. • ECOG performance status ≤1
# In 68 evaluable pts, 6 had confirmed partial responses (PR) per RECIST v 1.1 (300 mg QD, 500 mg QD, 200 mg BID, 2 at 300 mg BID, 400 mg BID). A further 45 pts had stable disease as best overall response. […]
# [4] = Phase I trial: pharmacokinetic (PK) studies; assay type: in vivo, human
# Experimental: as §1
# (§3) LXS196 led to reduction of phosphorylated myristoylated, alanine-rich C kinase substrate (pMARCKS) and phosphorylated PKC delta (pPKC delta), evident of target engagement in on-treatment tumor biopsies.
# [5] = Phase I trial of Compound I in patients with metastatic uveal melanoma: safety, DLT, MTD/RDE; assay type: in vivo
# Experimental: as §1, §2
# Patients eligible for this study must not meet any of the following criteria: • Malignant disease other than that being treated in this study • Symptomatic or untreated leptomeningeal or brain metastases or spinal cord compression. Treated brain metastases must have been stable for at least 1 month. • Impaired cardiac function or clinically significant cardiac diseases • Patients with abnormal laboratory values as defined by the protocol • Systemic anti-cancer therapy within 2 weeks of the first dose of study treatment. For cytotoxic agents that have major delayed toxicity, e.g. mitomycin C and nitrosoureas, and for anti-PD-1 or PD-L1 antibodies 4 weeks is indicated as the washout period. For patients receiving a CTLA-4 antagonist or vaccine as anticancer therapy, 6 weeks is indicated as the washout period. Patients must have recovered or stabilized from toxicities related to their previous treatment except for alopecia.
# As of the data of Jun. 12, 2017, 55 patients received Compound I (i.e., LXS196) at doses ranging from 100 mg to 1000 mg once daily (QD; 38 patients or “pts”) and 200 mg to 400 mg twice daily (BID; 17 pts). Dose limiting toxicities (DLTs) were reported in 7 of 38 pts (QD schedule) and in 1 of 12 pts (BID schedule). The most common DLT was hypotension, manageable with LXS196 interruption and dose reduction. MTDs were determined at 500 mg QD and 400 mg BID. Due to better overall tolerability the RDE is 300 mg BID. Most common AEs (all grade, in ≥20% of pts) suspected related to LXS196 in pts across both schedules (n=55) were nausea (58.2%), diarrhea (32.7%), vomiting (25.5%), hypotension (25.5%), fatigue (20%) and asthenia (20%). The majority of GI and constitutional AEs were grade (gr) ½. Gr ¾ AEs suspected related to LXS196 were reported in 12 pts (21.8%), the most common being hypotension (10.9%). All other gr ¾ AEs occurred in ≤2 pts (3.6%) each.
# [6] = tested on: phosphorylated myristoylated, alanine-rich C kinase substrate (pMARCKS); assay: Phase I trial: target engagement in on-treatment tumor biopsies (pMARCKS); assay type: in vivo, human
# Source text: as §3
# [7] = tested on: phosphorylated PKC delta (pPKC delta); assay: Phase I trial: target engagement in on-treatment tumor biopsies (pPKC delta); assay type: in vivo, human
# Source text: as §3
# [8] = tested on: UM cell lines; settings: with RITA and Topotecan; cited from earlier work
smiles,measurement,setting,value
"COc1cc2c(cc1OC(C)C)[C@H](c1ccc(Cl)cc1)N(c1ccc(N(C)C[C@H]3CC[C@H](N4CCN(C)C(=O)C4)CC3)cc1)C(=O)C2 [Compound III, (S)-1-(4-chloro-phenyl)-7-isopropoxy-6-methoxy-2-(4-{methyl-[4-(4-methyl-3-oxo-piperazin-1-yl)-trans-cyclohexylmethyl]-amino}-phenyl)-1,4-dihydro-2H-isoquinolin-3-one]",T/C,"[1]; MP55, 100 mg/kg QD oral",20%
same,treatment/control (T/C),"[2]; MP46, 100 mg/kg QD oral",39%
"CC1(N)CCN(c2cccnc2NC(=O)c2nc(-c3ncccc3C(F)(F)F)cnc2N)CC1 [LXS196, 3-amino-N-(3-(4-amino-4-methylpiperidin-1-yl)pyridin-2-yl)-6-(3-(trifluoromethyl)pyridin-2-yl)pyrazine-2-carboxamide]",T/C,"[1]; MP55, 120 mg/kg BID oral",20%
same,Stable disease as best overall response,[3],45 pts
same,Confirmed partial responses (PR) per RECIST v 1.1,"[3]; 300 mg QD, 500 mg QD, 200 mg BID, 2 at 300 mg BID, 400 mg BID",6 pts
same,Exposure,[4]; doses above 300 mg QD and 200 mg BID,in the efficacious range from preclinical projections
same,half-life,"[4]; human, in vivo, oral, consistent across different doses, read-out: terminal T½ (converted)",~10 h
same,Tmax,"[4]; human, in vivo, post dose, patients, oral",~1 h
same,"AE asthenia, all grade, suspected related","[5]; human, in vivo",20%
same,"AE diarrhea, all grade, suspected related","[5]; human, in vivo",32.7%
same,"AE fatigue, all grade, suspected related","[5]; human, in vivo",20%
same,"AE hypotension, all grade, suspected related","[5]; human, in vivo",25.5%
same,"AE nausea, all grade, suspected related","[5]; human, in vivo",58.2%
same,"AE vomiting, all grade, suspected related","[5]; human, in vivo",25.5%
same,"All other gr ¾ AEs, each, number of patients","[5]; human, in vivo",≤ 2 pts
same,"All other gr ¾ AEs, each, share of patients","[5]; human, in vivo",≤ 3.6%
same,"Gr ¾ AEs suspected related, number of patients","[5]; human, in vivo",12 pts
same,"Gr ¾ AEs suspected related, share of patients","[5]; human, in vivo",21.8%
same,Gr ¾ hypotension (most common gr ¾ AE),"[5]; human, in vivo",10.9%
same,Grade of the majority of GI and constitutional AEs,"[5]; human, in vivo",grade (gr) ½
same,Most common DLT,"[5]; human, in vivo",hypotension
same,RDE (recommended dose for expansion),"[5]; human, in vivo",300 mg BID
same,MTD,[5]; once daily schedule,500 mg QD
same,MTD,[5]; twice daily schedule,400 mg BID
same,regression,"[2]; MP46, 120 mg/kg BID oral",63%
same,Effect on pMARCKS,[6],reduction
same,Effect on pPKC delta,[7],reduction
COc1ccc(C2=N[C@@H](c3ccc(Cl)cc3)[C@@H](c3ccc(Cl)cc3)N2C(=O)N2CCNC(=O)C2)c(OC(C)C)c1 [Nutlin-3],Combination effect on growth inhibition,[8],synergistically
